ChEMBL document CHEMBL1201862, “PubChem BioAssay data set” (2004)
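48-hour exposure; five concentrations; linearly interpolated endpoints. Abbreviation: GI50, concentration required for 50% inhibition of growth.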 Calls of active or inactive are those of the source. Cut-off read from the data, not from the text of the source: active = GI50 up to about 1.1 µM and inactive = higher.

Columns and labels:
Test in all cases: inhibition of tumour cell growth, NCI panel, 48 h
786-0 = test system: 786-0
A498 = test system: A498
A549 = test system: A549
ACHN = test system: ACHN
CAKI-1 = test system: CAKI-1
CCRF-CEM = test system: CCRF-CEM
COLO 205 = test system: COLO 205
DLD-1 = test system: DLD-1
DMS-114 = test system: DMS-114
DMS-273 = test system: DMS-273
HCC 2998 = test system: HCC 2998
HCT-116 = test system: HCT-116
HCT-15 = test system: HCT-15
HL-60 = test system: HL-60
HOP-62 = test system: HOP-62
HOP-92 = test system: HOP-92
HT-29 = test system: HT-29
IGROV-1 = test system: IGROV-1
K562 = test system: K562
KM12 = test system: KM12
LOX IMVI = test system: LOX IMVI
LXFL 529 = test system: LXFL 529
M14 = test system: M14
M19-MEL = test system: M19-MEL
MOLT-4 = test system: MOLT-4
Malme-3M = test system: Malme-3M
NCI-H23 = test system: NCI-H23
NCI-H460 = test system: NCI-H460
NCI-H522 = test system: NCI-H522
OVCAR-3 = test system: OVCAR-3
OVCAR-5 = test system: OVCAR-5
OVCAR-8 = test system: OVCAR-8
SF-268 = test system: SF-268
SF-295 = test system: SF-295
SF-539 = test system: SF-539
SK-MEL-28 = test system: SK-MEL-28
SK-MEL-2 = test system: SK-MEL-2
SK-OV-3 = test system: SK-OV-3
SN12C = test system: SN12C
SNB-19 = test system: SNB-19
SNB-75 = test system: SNB-75
SNB-78 = test system: SNB-78
SW-620 = test system: SW-620
TK-10 = test system: TK-10
U-251 = test system: U-251
UACC-257 = test system: UACC-257
UACC-62 = test system: UACC-62
UO-31 = test system: UO-31
XF498 = test system: XF498
EKVX = test system: EKVX
HOP-18 = test system: HOP-18
KM-20L2 = test system: KM-20L2
NCI-H226 = test system: NCI-H226
OVCAR-4 = test system: OVCAR-4
RPMI-8226 = test system: RPMI-8226
RXF 393 = test system: RXF 393
SK-MEL-5 = test system: SK-MEL-5
SR = test system: SR

CC(C)(C)OC(=O)NCC(=O)OCc1ccccc1
GI50 (786-0): > 100 µM (inactive) | GI50 (A498): > 100 µM (inactive) | GI50 (A549): > 100 µM (inactive) | GI50 (ACHN): > 100 µM (inactive) | GI50 (CAKI-1): > 10 µM (inactive) | GI50 (CCRF-CEM): > 100 µM (inactive) | GI50 (COLO 205): > 100 µM (inactive) | GI50 (DLD-1): > 100 µM (inactive) | GI50 (DMS-114): > 100 µM (inactive) | GI50 (DMS-273): > 100 µM (inactive) | GI50 (HCC 2998): > 100 µM (inactive) | GI50 (HCT-116): > 100 µM (inactive) | GI50 (HCT-15): > 100 µM | GI50 (HL-60): > 100 µM (inactive) | GI50 (HOP-62): > 100 µM (inactive) | GI50 (HOP-92): > 100 µM (inactive) | GI50 (HT-29): > 100 µM (inactive) | GI50 (IGROV-1): > 100 µM (inactive) | GI50 (K562): > 100 µM (inactive) | GI50 (KM12): > 100 µM (inactive) | GI50 (LOX IMVI): > 100 µM (inactive) | GI50 (LXFL 529): > 100 µM (inactive) | GI50 (M14): > 100 µM (inactive) | GI50 (M19-MEL): > 100 µM (inactive) | GI50 (MOLT-4): > 100 µM (inactive) | GI50 (Malme-3M): > 100 µM (inactive) | GI50 (NCI-H23): > 100 µM (inactive) | GI50 (NCI-H460): > 100 µM (inactive) | GI50 (NCI-H522): > 10 µM (inactive) | GI50 (OVCAR-3): > 100 µM (inactive) | GI50 (OVCAR-5): > 100 µM (inactive) | GI50 (OVCAR-8): > 100 µM (inactive) | GI50 (SF-268): > 100 µM (inactive) | GI50 (SF-295): > 100 µM (inactive) | GI50 (SF-539): > 100 µM (inactive) | GI50 (SK-MEL-28): > 100 µM (inactive) | GI50 (SK-MEL-2): > 100 µM (inactive) | GI50 (SK-OV-3): > 100 µM (inactive) | GI50 (SN12C): > 100 µM (inactive) | GI50 (SNB-19): > 100 µM (inactive) | GI50 (SNB-75): > 100 µM (inactive) | GI50 (SNB-78): > 100 µM (inactive) | GI50 (SW-620): > 100 µM (inactive) | GI50 (TK-10): > 100 µM (inactive) | GI50 (U-251): > 100 µM (inactive) | GI50 (UACC-257): > 100 µM (inactive) | GI50 (UACC-62): > 100 µM (inactive) | GI50 (UO-31): > 100 µM (inactive) | GI50 (XF498): > 100 µM (inactive)

C=COCCCOc1ccccc1
GI50 (A549): > 100 µM (inactive) | GI50 (ACHN): > 100 µM (inactive) | GI50 (CAKI-1): > 100 µM (inactive) | GI50 (CCRF-CEM): > 100 µM (inactive) | GI50 (COLO 205): > 100 µM (inactive) | GI50 (DLD-1): > 100 µM (inactive) | GI50 (DMS-114): > 100 µM (inactive) | GI50 (DMS-273): > 100 µM (inactive) | GI50 (EKVX): > 100 µM (inactive) | GI50 (HCC 2998): > 100 µM (inactive) | GI50 (HCT-116): > 100 µM (inactive) | GI50 (HCT-15): > 100 µM | GI50 (HL-60): > 100 µM (inactive) | GI50 (HOP-18): 1.53 µM (inactive) | GI50 (HOP-62): > 100 µM (inactive) | GI50 (HT-29): > 100 µM (inactive) | GI50 (IGROV-1): 0.145 µM (active) | GI50 (K562): > 100 µM (inactive) | GI50 (KM-20L2): > 100 µM (inactive) | GI50 (KM12): > 100 µM (inactive) | GI50 (LOX IMVI): > 100 µM (inactive) | GI50 (LXFL 529): > 100 µM (inactive) | GI50 (M14): > 100 µM (inactive) | GI50 (M19-MEL): > 100 µM (inactive) | GI50 (MOLT-4): > 100 µM (inactive) | GI50 (Malme-3M): > 100 µM (inactive) | GI50 (NCI-H226): > 100 µM (inactive) | GI50 (NCI-H23): > 100 µM (inactive) | GI50 (NCI-H460): > 100 µM (inactive) | GI50 (NCI-H522): > 100 µM (inactive) | GI50 (OVCAR-3): > 100 µM (inactive) | GI50 (OVCAR-4): > 100 µM (inactive) | GI50 (OVCAR-5): > 100 µM (inactive) | GI50 (OVCAR-8): > 100 µM (inactive) | GI50 (RPMI-8226): > 100 µM (inactive) | GI50 (RXF 393): > 100 µM (inactive) | GI50 (SF-268): > 100 µM (inactive) | GI50 (SF-539): > 100 µM (inactive) | GI50 (SK-MEL-28): > 100 µM (inactive) | GI50 (SK-MEL-2): > 100 µM (inactive) | GI50 (SK-MEL-5): > 100 µM (inactive) | GI50 (SN12C): > 100 µM (inactive) | GI50 (SNB-19): > 100 µM (inactive) | GI50 (SR): > 100 µM (inactive) | GI50 (SW-620): > 100 µM (inactive) | GI50 (TK-10): > 100 µM (inactive) | GI50 (U-251): > 100 µM (inactive) | GI50 (UO-31): > 100 µM (inactive) | GI50 (XF498): > 100 µM (inactive)
